From US11104652B2, “Stereochemically enriched compositions for delivery of nucleic acids” (TRANSLATE BIO, INC., priority 2014, dated 2021)
Values joined by “and” are separate entries in the source; they are usually repeats but may differ in a detail not shown here. Equal values may be shown once.

How the values were obtained:
[1] = tested on: CD-1 mice; experiment: Toxicity studies: expression levels of ALT and AST after ASS1 mRNA-loaded lipid nanoparticles; format: in vivo, mouse
Protocol: (§1) All studies were performed using male CD-1 mice of approximately 6-8 weeks of age at the beginning of each experiment. Samples were introduced by a single bolus tail-vein injection of an equivalent total dose of 1.0 mg/kg (or otherwise specified) of encapsulated ASS1 mRNA. Mice were sacrificed and perfused with saline at the designated time points.
All animals were euthanized by CO2 asphyxiation at designated time points post dose administration (±5%) followed by thoracotomy and terminal cardiac blood collection. Whole blood (maximal obtainable volume) will be collected via cardiac puncture on euthanized animals into serum separator tubes, allowed to clot at room temperature for at least 30 minutes, centrifuged at 22° C.±5° C. at 9300 g for 10 minutes, and the serum will be extracted. For interim blood collections, approximately 40-50 μL of whole blood will be collected via facial vein puncture or tail snip. Samples collected from non treatment animals were used as a baseline ASS1 levels for comparison to study animals.
The chiral compounds of formula I generally yielded lower expression levels of ALT and/or AST, i.e., correlating to lower liver toxicity issues, compared to stereochemically non-enriched, or stereochemically less enriched, compositions of the same lipid.

[2] = tested on: human ASS1 protein production in wild type mouse liver; experiment: In vivo human ASS1 protein production (ELISA) via hASS1 mRNA-loaded lipid nanoparticles; conditions: Table 1, human ASS1 by ELISA, CD-1 mice, single bolus intravenous injection, 1.0 mg/kg encapsulated ASS1 mRNA, twenty-four hours post-injection
Protocol: as §1
The liver, spleen, kidney and heart of each mouse was harvested, apportioned into separate parts, and stored in either 10% neutral buffered formalin or snap-frozen and stored at −80° C. for analysis.
Human ASS1 ELISA: Standard ELISA procedures were followed employing mouse anti-ASS1 2D1-2E12 IgG as the capture antibody with rabbit anti-ASS1 #3285 IgG as the secondary (detection) antibody (Shire Human Genetic Therapies). Horseradish peroxidase (HRP)-conjugated goat anti-rabbit IgG was used for activation of the 3,3′,5,5′-tetramethylbenzidine (TMB) substrate solution. The reaction was quenched using 2N H2SO4 after 20 minutes. Detection was monitored via absorption (450 nm) on a Molecular Device SpectraMax instrument. Untreated mouse serum and organs and human ASS1 protein were used as negative and positive controls, respectively.
The production of human ASS1 protein via codon-optimized hASS1 mRNA-loaded lipid nanoparticles, comprising compounds of formula I, was tested in CD-1 mice as a single, bolus intravenous injection, as described above. FIG. 1 depicts the amount of human ASS1 protein detected via ELISA when treating mice human ASS1 mRNA-loaded lipid nanoparticles, with various racemic and chiral compounds of formula I, at 1.0 mg/kg doses. The mice were sacrificed twenty-four hours post-injection and organs, such as livers, were harvested.

[3] = Table 1, ASS1 mRNA-loaded lipid nanoparticles with the named cKK-E12 composition as cationic lipid, mice, intravenous
[4] = Table 2, single intravenous dose, 24 hours post, formulation cKK-E12:DOPE:Chol:DMG-PEG2K, several lots per structure, in U/L
[5] = Table 2, single intravenous dose, 24 hours post, formulation cKK-E12:DOPE:Chol:DMG-PEG2K, several lots per structure, listed as S4-RS/SR, in U/L

SMILES | ALT [1, 3] | AST [1, 3] | ASS1 (ng/mg Total Protein) ([2]; 1 mg/kg) | ALT [1, 4] | AST [1, 4] | ASS1 (ng/mg Total Protein) [2] [ng/mg Total Protein] | ALT [1, 5] | AST [1, 5]
CCCCCCCCCC[C@@H](O)CN(CCCCC1NC(=O)C(CCCCN(C[C@H](O)CCCCCCCCCC)C[C@H](O)CCCCCCCCCC)NC1=O)C[C@H](O)CCCCCCCCCC (mixture of isomers) [R4 with Racemic Lysine Core] | 188 ± 22 U/L and 236 ± 163 U/L | 265 ± 122 U/L and 237 ± 139 U/L | 823 ± 215 ng/mg Total Protein and 568 ± 248 ng/mg Total Protein |  |  |  |  | 
CCCCCCCCCCC(O)CN(CCCC[C@@H]1NC(=O)[C@H](CCCCN(CC(O)CCCCCCCCCC)CC(O)CCCCCCCCCC)NC1=O)CC(O)CCCCCCCCCC (mixture of isomers) [Racemic —OH with SS Lysine Core] | 378 ± 58 U/L and 618 ± 503 U/L | 622 ± 76 U/L and 638 ± 273 U/L | 117 ± 80 ng/mg Total Protein and 209 ± 169 ng/mg Total Protein |  |  |  |  | 
CCCCCCCCCC[C@H](O)CN(CCCCC1NC(=O)C(CCCCN(C[C@@H](O)CCCCCCCCCC)C[C@@H](O)CCCCCCCCCC)NC1=O)C[C@@H](O)CCCCCCCCCC (mixture of isomers) [S4 with Racemic Lysine Core] | 170 ± 40 U/L and 155 ± 57 U/L | 132 ± 44 U/L and 157 ± 38 U/L | 375 ± 244 ng/mg Total Protein and 674 ± 147 ng/mg Total Protein |  |  |  |  | 
CCCCCCCCCCC(O)CN(CCCC[C@@H]1NC(=O)[C@H](CCCCN(CC(O)CCCCCCCCCC)CC(O)CCCCCCCCCC)NC1=O)CC(O)CCCCCCCCCC (stereo in doubt) [R4-S,S-cKKE12, (3S,6S)-3,6-bis(4-(bis((S)-2-hydroxydodecyl)amino)butyl)piperazine-2,5-dione] | 175 ± 102 U/L | 144 ± 35 U/L |  | 175 ± 102 | 144 ± 35 | 449 ± 105 |  | 
CCCCCCCCCC[C@@H](O)CN(CCCC[C@H]1NC(=O)[C@@H](CCCCN(C[C@H](O)CCCCCCCCCC)C[C@H](O)CCCCCCCCCC)NC1=O)C[C@H](O)CCCCCCCCCC [R4-RR] |  |  |  | 136 ± 34 | 194 ± 80 |  |  | 
CCCCCCCCCC[C@H](O)CN(CCCC[C@H]1NC(=O)[C@@H](CCCCN(C[C@@H](O)CCCCCCCCCC)C[C@@H](O)CCCCCCCCCC)NC1=O)C[C@@H](O)CCCCCCCCCC [S4-RR] |  |  |  | 152 ± 9 | 180 ± 42 |  |  | 
CCCCCCCCCC[C@H](O)CN(CCCC[C@@H]1NC(=O)[C@@H](CCCCN(C[C@@H](O)CCCCCCCCCC)C[C@@H](O)CCCCCCCCCC)NC1=O)C[C@@H](O)CCCCCCCCCC [S4-S,R-cKKE12] | 190 ± 75 U/L | 193 ± 71 U/L |  |  |  | 2303 ± 491 | 143 ± 29 and 189 ± 47 and 190 ± 75 | 240 ± 98 and 203 ± 87 and 193 ± 71
CCCCCCCCCC[C@H](O)CN(CCCC[C@@H]1NC(=O)[C@H](CCCCN(C[C@@H](O)CCCCCCCCCC)C[C@@H](O)CCCCCCCCCC)NC1=O)C[C@@H](O)CCCCCCCCCC [S4-S,S-cKKE12, (3S,6S)-3,6-bis(4-(bis((S)-2-hydroxydodecyl)amino)butyl)piperazine-2,5-dione] | 226 ± 71 U/L | 384 ± 233 U/L |  | 226 ± 71 | 384 ± 233 | 1121 ± 468 |  | 
